Source: US10662229B2, “Spider venom peptides and methods of use for modulating sodium channels” (priority 2016, dated 2020)

Tests used:
hNav1.9 = target: T1, hNav1.9 (Homo sapiens, UniProt Q9UI33); test: Automated patch clamp (PatchXpress), hNav1.9; assay type: cell-based
T1 construct: expressed in transfected cells; host or cells: HEK293
Procedure: Cells were triturated until a single cell suspension was achieved. […] Cell aliquots of 5 mL (1×10^6 cells) were placed in a 15 mL centrifuge tube and spun at 100×g for 2 minutes.

[1] = system: ciguatoxin-induced spontaneous pain in mice; test: Ciguatoxin-induced spontaneous pain; assay type: in vivo; conditions: intraplantar, co-injected with ciguatoxin
Procedure: For behavioural assessment adult male C57BL/6J mice aged 6-8 weeks were used. Animals were housed in groups of 3 or 4 per cage, under 12 h light-dark cycles and had standard rodent chow and water ad libitum.
Ciguatoxin (P-CTX-1; isolated in accordance with the protocol of Hamilton et al. (2002) Toxicon, 40(6): 685-693) was diluted in phosphate-buffered saline/0.1% BSA (10 nM) and administered by shallow subcutaneous (intraplantar) injection to the left hind paw of mice in a volume of 40 μL under light isoflurane (3%) anesthesia. Mice were then placed individually into polyvinyl boxes (10×10×10 cm), and spontaneous pain behavior (licks and flinches) was counted by an investigator unaware of the treatments received from video recordings for 10 min post-injection.

hERG = target: T2, hERG (Homo sapiens, UniProt Q12809); test: hERG automated patch clamping in CHO cells; assay type: cell-based; conditions: 100 nM
T2 construct: host or cells: CHO
T2 sequence (Q12809 whole entry): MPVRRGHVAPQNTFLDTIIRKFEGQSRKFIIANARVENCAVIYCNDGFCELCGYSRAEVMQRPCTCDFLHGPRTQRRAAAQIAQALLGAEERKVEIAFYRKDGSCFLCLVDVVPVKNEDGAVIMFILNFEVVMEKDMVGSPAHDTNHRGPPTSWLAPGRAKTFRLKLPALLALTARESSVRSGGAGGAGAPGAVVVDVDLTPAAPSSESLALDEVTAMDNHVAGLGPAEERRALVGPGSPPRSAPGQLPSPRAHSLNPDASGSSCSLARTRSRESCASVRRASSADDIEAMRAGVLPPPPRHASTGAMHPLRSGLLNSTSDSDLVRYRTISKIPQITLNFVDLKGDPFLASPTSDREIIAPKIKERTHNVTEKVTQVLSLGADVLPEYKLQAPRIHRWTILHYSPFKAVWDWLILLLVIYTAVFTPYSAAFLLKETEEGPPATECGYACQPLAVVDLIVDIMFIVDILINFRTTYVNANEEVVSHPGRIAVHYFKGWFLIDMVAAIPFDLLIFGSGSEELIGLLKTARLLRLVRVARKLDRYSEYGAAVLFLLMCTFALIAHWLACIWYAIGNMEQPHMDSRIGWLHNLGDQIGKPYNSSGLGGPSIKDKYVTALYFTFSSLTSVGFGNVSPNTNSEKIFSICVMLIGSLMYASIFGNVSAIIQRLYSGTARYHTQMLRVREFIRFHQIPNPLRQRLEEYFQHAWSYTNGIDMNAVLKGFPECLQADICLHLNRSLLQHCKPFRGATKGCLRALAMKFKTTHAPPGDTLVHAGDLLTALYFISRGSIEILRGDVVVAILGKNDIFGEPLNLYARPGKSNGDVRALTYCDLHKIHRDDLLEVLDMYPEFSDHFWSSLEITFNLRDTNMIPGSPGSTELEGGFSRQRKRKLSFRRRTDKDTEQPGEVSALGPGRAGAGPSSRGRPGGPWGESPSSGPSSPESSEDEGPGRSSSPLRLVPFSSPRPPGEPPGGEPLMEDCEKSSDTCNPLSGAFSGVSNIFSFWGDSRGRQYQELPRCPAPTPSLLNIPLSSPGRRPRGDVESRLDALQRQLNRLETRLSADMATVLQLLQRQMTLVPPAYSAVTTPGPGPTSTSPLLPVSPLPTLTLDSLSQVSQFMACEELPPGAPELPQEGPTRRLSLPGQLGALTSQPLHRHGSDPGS
Procedure: CHO cells stably expressing hERG (B'SYS GmbH, Witterswil, Switzerland) were cultured in Ham's F-12 medium containing 10% v/v FBS and selection antibiotics as recommended by the manufacturer. Cells were cultured and prepared as described in Example 4.
The extracellular solution contained in mM: NaCl 145, KCl 4, MgCl2 1, CaCl2 2, HEPES 10 and glucose 10. The pH was adjusted to 7.4 and osmolarity was 305 mOsm. The intracellular solution contained in mM; KCl 120, HEPES 10, CaCl2 5, MgCl2 1.7, K2ATP 4, EGTA 10.
The pH was adjusted to 7.3 and osmolarity was 292 mOsm.
Whole-cell patch-clamp experiments were performed on a QPatch-16 automated electrophysiology platform (as described in Example 4). hERG currents were elicited by a depolarization step of +40 mV from a holding potential of −80 mV for 5 s. hERG tail currents were elicited upon partial repolarization to −50 mV for 5 s. The interval of voltages pulses was 15 s.

T1 sequence (Q9UI33 whole entry): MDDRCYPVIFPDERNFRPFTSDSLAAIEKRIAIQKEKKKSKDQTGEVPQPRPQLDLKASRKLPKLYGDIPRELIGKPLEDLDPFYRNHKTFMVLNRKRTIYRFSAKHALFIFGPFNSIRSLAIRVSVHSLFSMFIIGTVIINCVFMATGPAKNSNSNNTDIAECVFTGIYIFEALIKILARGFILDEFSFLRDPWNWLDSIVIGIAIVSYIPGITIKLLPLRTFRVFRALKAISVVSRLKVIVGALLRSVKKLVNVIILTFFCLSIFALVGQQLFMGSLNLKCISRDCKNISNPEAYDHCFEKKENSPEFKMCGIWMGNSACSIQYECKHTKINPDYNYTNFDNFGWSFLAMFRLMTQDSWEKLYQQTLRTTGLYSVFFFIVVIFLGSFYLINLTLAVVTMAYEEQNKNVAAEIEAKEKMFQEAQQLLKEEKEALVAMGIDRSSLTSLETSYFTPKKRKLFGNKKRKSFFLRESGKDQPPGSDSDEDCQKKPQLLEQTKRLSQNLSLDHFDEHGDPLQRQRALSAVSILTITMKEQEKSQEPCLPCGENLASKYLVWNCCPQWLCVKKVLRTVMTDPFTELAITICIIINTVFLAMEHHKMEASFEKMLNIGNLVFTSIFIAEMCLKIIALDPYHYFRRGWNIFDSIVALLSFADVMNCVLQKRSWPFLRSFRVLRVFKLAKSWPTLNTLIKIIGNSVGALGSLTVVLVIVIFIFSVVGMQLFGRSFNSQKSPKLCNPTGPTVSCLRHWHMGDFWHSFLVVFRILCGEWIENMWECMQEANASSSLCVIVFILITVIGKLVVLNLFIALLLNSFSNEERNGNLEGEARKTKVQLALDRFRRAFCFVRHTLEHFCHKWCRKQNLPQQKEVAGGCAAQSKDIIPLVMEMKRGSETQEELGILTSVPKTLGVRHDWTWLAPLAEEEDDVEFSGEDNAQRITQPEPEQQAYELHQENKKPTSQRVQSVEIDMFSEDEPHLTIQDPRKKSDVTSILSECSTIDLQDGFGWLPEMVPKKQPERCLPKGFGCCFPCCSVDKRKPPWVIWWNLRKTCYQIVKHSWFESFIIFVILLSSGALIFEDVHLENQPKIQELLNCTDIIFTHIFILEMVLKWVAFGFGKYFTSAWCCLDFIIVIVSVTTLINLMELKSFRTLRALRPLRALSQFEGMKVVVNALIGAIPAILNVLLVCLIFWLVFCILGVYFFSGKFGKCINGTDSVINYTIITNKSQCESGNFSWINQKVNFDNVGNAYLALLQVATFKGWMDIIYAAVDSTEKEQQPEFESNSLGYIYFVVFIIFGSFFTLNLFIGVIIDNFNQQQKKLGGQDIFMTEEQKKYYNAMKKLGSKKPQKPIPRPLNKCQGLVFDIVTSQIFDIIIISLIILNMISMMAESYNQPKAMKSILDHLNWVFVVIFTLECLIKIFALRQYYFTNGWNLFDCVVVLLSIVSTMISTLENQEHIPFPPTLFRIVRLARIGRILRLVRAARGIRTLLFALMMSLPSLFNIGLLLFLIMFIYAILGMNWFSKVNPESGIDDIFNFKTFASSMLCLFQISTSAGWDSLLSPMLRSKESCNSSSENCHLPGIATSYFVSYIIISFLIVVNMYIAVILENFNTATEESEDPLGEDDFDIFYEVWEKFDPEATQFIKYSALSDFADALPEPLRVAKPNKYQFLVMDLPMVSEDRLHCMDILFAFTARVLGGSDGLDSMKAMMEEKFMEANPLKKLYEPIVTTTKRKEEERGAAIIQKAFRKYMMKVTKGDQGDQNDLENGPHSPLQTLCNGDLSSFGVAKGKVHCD

CSCC[C@@H]1NC(=O)[C@H](Cc2ccc(O)cc2)NC(=O)[C@H](CCCNC(=N)N)NC(=O)[C@@H](NC(=O)[C@@H](N)CC(=O)O)CSSC[C@@H]2NC(=O)[C@@H]3CSSC[C@@H](C(=O)N[C@@H](C)C(=O)N[C@@H](Cc4c[nH]c5ccccc45)C(=O)N[C@@H](CC(=O)O)C(=O)N[C@@H](Cc4ccccc4)C(=O)N[C@H](C(=O)N[C@@H](Cc4ccccc4)C(=O)N[C@H](C(=O)O)[C@@H](C)O)[C@@H](C)O)NC(=O)[C@H](Cc4ccc(O)cc4)NC(=O)[C@H](CCCCN)NC(=O)[C@H](CCSC)NC(=O)[C@H](CCCCN)NC(=O)[C@H](CCCNC(=N)N)NC(=O)[C@H](CCCCN)NC(=O)[C@H](CSSC[C@H](NC(=O)[C@H](CC(=O)O)NC(=O)CNC(=O)[C@H](Cc4ccccc4)NC1=O)C(=O)N[C@@H](CCC(=O)O)C(=O)N[C@@H](CCCCN)C(=O)N[C@@H](CC(=O)O)C(=O)N[C@@H](CCC(=O)O)C(=O)N[C@@H](CC(=O)O)C(=O)N3)NC(=O)CNC(=O)[C@H](CC(C)C)NC(=O)[C@H](Cc1cnc[nH]1)NC(=O)[C@H](CCCCN)NC2=O [Pnc1a]
IC50 (hNav1.9): 2340 nM | ciguatoxin-induced spontaneous pain behaviours [1]: significantly reduced | effect on hERG peak tail current (hERG): did not have a significant effect | hERG peak tail current (hERG; control 539±13 pA): 504±38 pA
